Measurements: ChEMBL document CHEMBL1154159, “Didanosine ester prodrugs: synthesis, albumin binding properties and pharmacokinetic studies in rats” (Eur J Med Chem, 2009)

Assays:
[1] = Chemical stability in phosphate buffered saline assessed as compound degradation at 0.05 M at pH 7.4 at 5 degC after 1 hr by HPLC; type: physicochemical; conditions: buffer, pH 7.4, 1 h
[2] = Chemical stability in phosphate buffered saline assessed as compound degradation at 0.05 M at pH 7.4 at 25 degC after 1 hr by HPLC; type: physicochemical; conditions: buffer, pH 7.4, 1 h
[3] = Chemical stability in phosphate buffered saline assessed as compound degradation at 0.05 M at pH 7.4 at 40 degC after 1 hr by HPLC; type: physicochemical; conditions: buffer, pH 7.4, 1 h
[4] = Chemical stability in phosphate buffered saline assessed as compound degradation at 0.05 M at pH 7.4 at 5 to 40 degC after 14 days by HPLC; type: physicochemical; conditions: buffer, pH 7.4, 336 h
[5] = Clearance in Rowet nu/nu rat plasma at 15 mg/kg, iv after 5 mins to 6 hrs; type: ADME, organism-based; parameters: dose 15 mg/kg, route intravenous
[6] = AUC (0 to 360 mins) in Rowet nu/nu rat plasma at 15 mg/kg, iv after 5 mins to 6 hrs; type: ADME, organism-based; parameters: time < 6 hr, dose 15 mg/kg, route intravenous
[7] = Half life in rat at 125 mg/kg/hr, iv after 2 hrs; type: ADME, organism-based; parameters: route intravenous; conditions: in vivo
[8] = Clearance in Rowet nu/nu rat plasma at […], iv after 5 mins to 6 hrs; type: ADME, organism-based
[9] = AUC (0 to 360 mins) in Rowet nu/nu rat plasma at […], iv after 5 mins to 6 hrs; type: ADME, organism-based; parameters: time < 6 hr, route intravenous

Stability [1]	Stability [2]	Stability [3]	Stability [4]	clearance [5] [mL/min/kg]	AUC(0-t) at 6 h [6] [ng·h/mL]	half-life [7] [h]	clearance [8] [mL/min/kg]	AUC(0-t) at 6 h [9] [ng·h/mL]	SMILES
Stable	Stable	Stable	Unstable	–	–	–	–	–	O=C(O)CCCCCCCCCCC(=O)OC[C@H]1CC[C@@H](n2cnc3c(=O)[nH]cnc32)O1
Stable	Stable	Stable	Unstable	–	–	–	–	–	O=C(O)CCCCC(=O)OC[C@H]1CC[C@@H](n2cnc3c(=O)[nH]cnc32)O1
Stable	Stable	Stable	Unstable	107	2680	–	–	–	O=C(O)CCCCCCCC(=O)OC[C@H]1CC[C@@H](n2cnc3c(=O)[nH]cnc32)O1
–	–	–	–	–	–	1	134	2100	O=c1[nH]cnc2c1ncn2[C@H]1CC[C@@H](CO)O1 [DIDANOSINE]
